Measured values from patent US20230172923A1, “METHODS OF TREATING CYTOKINE-RELATED ADVERSE EVENTS” (BRISTOL-MYERS SQUIBB COMPANY, priority 2020, published 2023).

Key:
Assay type in all cases: cell-based, human
MDC = test: LPS-stimulated PBMC cytokine production, multiplex cytokine analysis: MDC; settings: Homo sapiens, PBMC, PBMC 2×10^6 cells/ml, compound 1 hour, then 1 ng/ml LPS 18 hours
Experimental: (§1) Peripheral blood mononuclear cells (PBMCs) were isolated from the blood of healthy human donors by Ficoll cell separation. […] Supernatant samples were subjected to multiplex cytokine analysis (Luminex IS100 instrument) to quantify secreted levels of IL-6, IL-8, IL1-beta (IL-1β), GM-CSF, MDC, MIP-1alpha (MIP-1α), MIP-1beta (MIP-1β) and TNF-alpha (TNF-α) (see e.g. FIGS. 7A-C). IC50 (half maximal inhibitory concentration) values were calculated to measure the potency of each IMiD compound in inhibiting LPS-stimulated secretion of each cytokine (see Table 25).

IL1-beta = test: LPS-induced IL1-beta secretion from PBMCs, overnight pre-treatment (MSD); settings: overnight 1000 nM lenalidomide, 100 nM pomalidomide, 10 nM iberdomide or 1 nM Compound 1; LPS 24 hours
Experimental: Fresh PBMCs isolated from healthy volunteers were seeded at a concentration of 1×10^6 cells/ml and treated with the indicated concentration of IMiD drugs/CELMoD agents or DMSO overnight before stimulation with the indicated concentration of LPS. After 24 hours, the cell culture media was collected and IL-6, TNF-alpha and IL1-beta levels in the supernatant were assessed using an MSD assay. ULOQ = Upper limit of quantification.
Fresh peripheral blood mononuclear cells (PBMCs) were isolated from the blood (buffy coat) of healthy human volunteers by Ficoll based cell separation. The isolated PBMCs were seeded at a concentration of 1×10^6 cells/ml and treated with 1000 nM lenalidomide, 100 nM pomalidomide, 10 nM iberdomide, 1 nM Compound 1 (CC-92480) or control DMSO, overnight (~17 hours). The next morning, the PBMCs were stimulated with various concentrations of LPS (Lipopolysaccharides from Escherichia coli O111:B4).
After 24 hours, the cell culture media was collected from the control and stimulated cells, spun down at 300 g for 5 minutes to remove cells and the supernatant was subjected to cytokine analysis to quantify secreted levels of IL-6, TNF-alpha (TNF-α) and IL1-beta (IL-1β) using an MSD assay (see e.g. FIGS. 8A-C).

IL-6 = test: LPS-stimulated PBMC cytokine production, multiplex cytokine analysis: IL-6; settings: Homo sapiens, PBMC, PBMC 2×10^6 cells/ml, compound 1 hour, then 1 ng/ml LPS 18 hours
Experimental: as §1

NCI-H929 cells = test: CC-93269 mediated cytotoxicity assay with chronically stimulated T-cells, NCI-H929 target cells (IncuCyte); settings: anti-CD3/CD28 7 days with 100 nM pomalidomide, 10 nM iberdomide or 1 nM CC-92480; CC-93269 47 pM; E:T 1:4
Experimental: (§2) Cell growth kinetics of A) NCI-H929 and B) OPM-2 cells in CC-93269 (47 pM) cytotoxicity assays on the IncuCyte® S3 Live-Cell Analysis System. Healthy donor T-cells were used as effector cells with or without chronic stimulation with anti-CD3/CD28 (7 days) in the presence of DMSO or CM agents (100 nM Pomalidomide, 10 nM CC-220 or 1 nM CC-92480). T-cells and NCI-H929 cells were co-cultured at E:T ratios of 1:4 (NCI-H929) or 1:2 (OPM-2). […] In contrast, prior exposure to CM agents prevented functional TBMS cell exhaustion and CC-93269 activity was similar or better to those observed with freshly thawed T-cells. Values shown represent the mean ± standard deviation of AUC values of 2-3 replicates from the same experiment.
(§3) To evaluate the effects of Cereblon modulating (CM) agents on T-cell function after chronic stimulation (i.e. mimicking T cell exhaustion), CD3+ enriched healthy donor T-cells were stimulated with anti-CD3/CD28 in the presence of DMSO (control), 100 nM pomalidomide, 10 nM iberdomide (CC-220) or 1 nM Compound 1 (CC-92480) for 7 days. Prolonged and repetitive anti-CD3/CD28 stimulation of T-cells results in functional T-cell exhaustion in vitro.
(§4) The chronically stimulated T-cells were then used in CC-93269 mediated cytotoxicity assays with NCI-H929 or OPM-2 multiple myeloma (MM) target cells. The T-cells were washed to remove compounds, and mixed with fluorescently labelled MM cell lines (NCI-H929, OPM-2) at optimized effector-to-target (E:T) ratios (1:2 or 1:4) in the presence of fixed concentrations of CC-93269 (47 pM). Freshly thawed T-cells (i.e. non-exhausted T-cells) from the same donor were used as control effector cells. In this experimental cytotoxicity assay setup, the number of target cells was continuously monitored using the IncuCyte® S3 Live-Cell Analysis System for a minimum of 10 days. Cell culture supernatants were taken from wells from subsequent CC-93269 mediated cytotoxicity assays at 3 days after mixing with MM target cells. CD3+ T cells from 2 or 3 independent healthy donors were tested for each MM cell line.

OPM-2 cells = test: CC-93269 mediated cytotoxicity assay with chronically stimulated T-cells, OPM-2 target cells (IncuCyte); settings: anti-CD3/CD28 7 days with 100 nM pomalidomide, 10 nM iberdomide or 1 nM CC-92480; CC-93269 47 pM; E:T 1:2
Experimental: as §2, §3, §4

TNF-alpha = test: CC-93269-induced TNF-alpha secretion, co-culture of PBMCs and K562-BCMA cells (MSD); settings: Compound 1 pre-treatment; 24 hours
Experimental: Co-cultures of PBMCs, target K562-BCMA cells and CC-93269 were prepared as for FIG. 9. At 6-, 24- and 48-hours post-incubation, the cell culture media was collected and levels of TNF-alpha (FIG. 12A) and IL-2 (FIG. 12B) in the supernatant were assessed using an MSD assay. ULOQ = Upper limit of quantification.
Fresh PBMCs were isolated from the blood (buffy coat) of healthy human volunteers by Ficoll based cell separation. The percentage of CD3+ T-cells (total) in the PBMCs was quantified by flow cytometry. The isolated PBMCs were seeded in 12-well plates at a concentration of 1.5×10^6 cells/ml and treated with 1 nM Compound 1 (CC-92480), 1000 nM lenalidomide, 100 nM pomalidomide, 10 nM iberdomide, or control DMSO overnight (~17 hours).
After overnight incubation, target K562-BCMA cells (overexpress surface BCMA at a very high level) or control K562-MCB cells (no BCMA expression) were added to the wells at a ratio of 5:1, T-cells to target cells. K562-BCMA and K562-MCB are an isogenic pair that are derived from a chronic myelogenous leukemia (CML,) cell line. CC-93269 was added to the co-culture at various concentrations and incubated. CC-93269 is an anti-BCMA anti-CD3 bispecific T cell-engaging antibody and is also referred to herein as 42-TCBcv.

SMILES	IC50 (MDC)	LPS-induced secretion of IL-1β from PBMCs (IL1-beta)	IC50 (IL-6)	cytolytic function of chronically stimulated T-cells in CC-93269-directed killing of NCI-H929 cells (NCI-H929 cells)	cytolytic function of chronically stimulated T-cells in CC-93269-directed killing of OPM-2 cells (OPM-2 cells)	CC-93269-induced TNF-alpha secretion from PBMCs with K562 target cells (TNF-alpha)
Nc1cccc2c1CN(C1CCC(=O)NC1=O)C2=O (centres unmarked) [Lenalidomide, 3-(4-amino-1-oxo-2,3-dihydro-1H-isoindol-2-yl) piperidine-2,6-dione]	0.19 µM	reduces	1.2 µM	–	–	–
Nc1cccc2c1C(=O)N(C1CCC(=O)NC1=O)C2=O (centres unmarked) [Pomalidomide, 4-amino-2-(2,6-dioxopiperidine-3-yl)isoindoline-1,3-dione]	0.031 µM	reduces	0.059 µM	beneficial effects on the cytolytic function of T-cells	beneficial effects on the cytolytic function of T-cells	–
O=C1CC[C@H](N2Cc3c(OCc4ccc(CN5CCOCC5)cc4)cccc3C2=O)C(=O)N1 [Iberdomide, (S)-3-(4-((4-(morpholinomethyl)benzyl)oxy)-1-oxoisoindolin-2-yl)piperidine-2,6-dione]	0.0021 µM	reduces	0.0038 µM	beneficial effects on the cytolytic function of T-cells	beneficial effects on the cytolytic function of T-cells	–
N#Cc1ccc(N2CCN(Cc3ccc(COc4cccc5c4CN(C4CCC(=O)NC4=O)C5=O)cc3)CC2)c(F)c1 (stereo not drawn) [Compound 1, 4-(4-(4-(((2-(2,6-dioxopiperidin-3-yl)-1-oxoisoindolin-4-yl)oxy)methyl)benzyl)piperazin-l-yl)-3-fluorobenzonitrile]	–	reduces	–	beneficial effects on the cytolytic function of T-cells	beneficial effects on the cytolytic function of T-cells	potentiates
